According to patent publication US20130252983A1, “ACTIVATING PHOSPHORYLATION SITE ON GLUTAMINASE C” (CORNELL UNIVERSITY, priority 2010, published 2013):
Numbering of substitutions follows the chain as printed.

Columns and labels:
[1] = target: T1, GAC phosphorylation (Mus musculus, UniProt D3Z7P3); assay: 2-D gel analysis of V5-GAC phosphorylation states from treated Dbl cells; format: cell-based; settings: 968 10 μM, 48 hours
T1 construct: expressed in transfected cells; host or cells: NIH 3T3 cells (stably expressing Dbl, or parental), transient transfection
T1 sequence (D3Z7P3 55-603 isoform D3Z7P3-2 limits assumed): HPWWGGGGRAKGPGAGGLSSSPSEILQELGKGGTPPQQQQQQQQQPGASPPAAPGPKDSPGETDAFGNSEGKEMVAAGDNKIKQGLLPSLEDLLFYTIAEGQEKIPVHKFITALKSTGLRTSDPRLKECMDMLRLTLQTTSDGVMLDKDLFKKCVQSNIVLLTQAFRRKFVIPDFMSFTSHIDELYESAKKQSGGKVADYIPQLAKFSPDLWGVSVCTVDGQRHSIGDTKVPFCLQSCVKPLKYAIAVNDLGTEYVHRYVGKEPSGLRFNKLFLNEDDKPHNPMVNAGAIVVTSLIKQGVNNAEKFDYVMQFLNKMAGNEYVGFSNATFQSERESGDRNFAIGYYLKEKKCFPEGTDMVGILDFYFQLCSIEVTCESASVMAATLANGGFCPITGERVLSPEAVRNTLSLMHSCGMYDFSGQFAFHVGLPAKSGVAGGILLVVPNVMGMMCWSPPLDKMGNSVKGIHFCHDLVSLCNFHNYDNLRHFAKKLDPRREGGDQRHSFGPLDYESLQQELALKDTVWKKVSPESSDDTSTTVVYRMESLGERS
Protocol: NIH 3T3 cells stably expressing the Dbl oncogene, were transiently transfected with DNA encoding a VS-tagged GAC, and then one sample was treated with 968 (10 μM) for 48 hours. The cells were then harvested and the ectopically expressed GAC was isolated by immunoprecipitation via the V5 tag. The samples were then subjected to 2-D gel analysis to separate the V5-GAC by charge and size, and the V5-tagged GAC was visualized by Western blotting using an anti-V5 antibody.
GAC runs distinctly on a 2D gel depending whether it is expressed in normal (untransformed) NIH 3T3 cells or in NIH 3T3 cells which are transformed by the Dbl oncogene. Specifically, there is one major species of GAC present in NIH 3T3 cells whereas in Dbl cells, two additional species of GAC appear which migrate with a more negative charge but at the same molecular mass as the original species (FIG. 21, first and second panels). […] Additionally, it has been shown that small molecules of the 968 family which are able to inhibit GAC in vivo do so by blocking the ability of GAC to become phosphorylated. Thus, it was of great interest to identify the amino acid(s) on GAC whose phosphorylation is causal in the activation of this enzyme.

[2] = system: normal NIH 3T3 cells; assay: Growth and morphology of control NIH 3T3 cells; format: cell-based, mouse; settings: 10% calf serum; 10 μM (growth), 5 μM (morphology)
Protocol: FIGS. 1A-E illustrate that the small molecule 968 inhibits cellular transformation. […] Cells were fixed and stained with crystal violet for counting of foci. Right: 968 was serially diluted (10, 5, 2.5, and 1.25 μM) and evaluated for its ability to inhibit focus formation. […] After 6 days, the cells were counted. 100% represents the number of Dbl-transformed cells counted in the absence of 968 (27.5×10^4 cells). Data represent the average of 3 experiments (±s.d.). […] At the indicated times, the cells were counted. Data represent the average of 3 experiments (±s.d.).

[3] = system: NIH 3T3 cells stably expressing Cdc42(F28L), Rac(F28L), RhoC(F30L); assay: Growth to high density or in low serum of cells expressing activated Rho GTPase mutants; format: cell-based, mouse; settings: 10 μM
Protocol: (§1) FIGS. 2A-G illustrate effects of 968 on the transforming activity of constitutively active Rho GTPases and human breast cancer cells. […] Cells were scored after 14 days and plotted as the percentage of the total number of colonies greater than 50 μm in diameter. Data represent the average of 3 experiments (±s.d.). […] Data represent the average of 3 experiments (±s.d.). […] Data represent the average of 3 experiments (±s.d.). […] After 24 hours at 37° C., the migratory cells were fixed, stained with GIEMSA, and counted. Data represent the average of 3 experiments (±s.d.). […] Data represent the average of 3 experiments (±s.d.). […] Data represent the average of 3 experiments (±s.d.). […] Data represent the average of 3 experiments (±s.d.).

[4] = system: MDA-MB231 cells; assay: Growth to high density and in low serum, MDA-MB231; format: cell-based, human; settings: 10 μM
Protocol: as §1

[5] = target: T2, GAC (S103A) (Mus musculus, UniProt D3Z7P3, S103A); assay: Glutaminase activity of immunoprecipitated GAC (S103A) from treated Dbl-transformed cells; format: cell-based; settings: 10 μM, 48 hours
T2 construct: expressed in transfected cells; host or cells: Dbl-transformed NIH 3T3 cells
T2 sequence (D3Z7P3 55-603 isoform D3Z7P3-2 S103A): T1 sequence (D3Z7P3 55-603 isoform D3Z7P3-2 limits assumed) with S49A
Protocol: Next the effect of the substitution of an alanine for a serine at amino acid 103 on the enzymatic activity of GAC was examined, as well as its sensitivity to the small molecule, 968. […] Following transfection, the cells were treated for 48 hours with 968 (10 μM) and then harvested. The different GAC proteins were then isolated by immunoprecipitation and assayed for their glutaminase activity in the absence (i.e., basal activity) and presence of phosphate (FIG. 24). […] Initially, the high glutaminase activity of the GAC (S103A) mutant was surprising as it had been predicted that this phospho-defective mutant should have a reduced enzymatic activity. […] When this hydrogen bond is broken, either by mutating the serine to an alanine or upon the phosphorylation of this serine residue, GAC transitions to an active conformation. […] Thus, Serine 103 plays a critical role in the regulation of the glutaminase activity of GAC.

[6] = system: SKBR3 cells; assay: Soft-agar colony formation, SKBR3; format: cell-based, human; settings: 10 μM
Protocol: as §1

CN(C)c1ccc(C2Nc3ccc4ccccc4c3C3=C2C(=O)CC(C)(C)C3)cc1Br (centres unmarked) [Compound 968, 5-[3-bromo-4-(dimethylamino)phenyl]-2,2-dimethyl-2,3,5,6-tetrahydrobenzo[a]]
phosphorylation state of GAC [1]: significant reduction of at least one phosphorylation state of GAC | effect on growth or morphology of normal NIH 3T3 cells [2]: no significant effects | growth under low serum conditions ([3]; 1% calf serum): blocking their ability | growth to high density ([3]; 10% calf serum, 6 days): blocking their ability | growth in low serum ([4]; 1% fetal bovine serum): inhibits their growth | growth to high density ([4]; 10% fetal bovine serum, 6 days): inhibits their growth | glutaminase activity of GAC (S103A) [5]: not affected | colony formation in soft agar [6]: inhibits the ability
